Experiments:
[1] = test system: HIV-infected LC5 cells; test: MTT toxicity/killing of HIV infected cells (Biomek 1000); assay type: cell-based, human
Description: The KE37-1 (uninfected) and KE37-1/111β (infected) cell lines discussed below are commercially available from the Dr. Robert Gallows Laboratory of the NIH in the United States of America and grown in a medium of RPMI 1640 (GIBCO) and further supplemented with 10% fetal calf serum which contained approximately 100 units of penicillin, 100 μg streptomycin, and approximately 0.25 μg fungizone (Amphotericin B) per milliliter. The human mesenchymal cell lines LC5 and LC5-HIV, discussed below, are deposited with the Collection De L'Institut Pasteur of Paris, France on Mar. 9, 1989 and given the accession numbers I-842 and I-843, respectively. The LC5 and LC5-HIV cell lines were grown in a medium of RPMI 1640 and supplemented with 10% fetal calf serum.
(§1) A series of experiments and which are illustrated graphically in FIGS. 6 through 34, respectively, were designed to detect two extremes. In particular the tests were designed to detect the inhibition of viral release and/or the release of virus which has a reduced ability to infect other cells. This reduced ability to infect other cells is represented, for example, by glycosylation inhibitors, the direct effect on virus release is represented by acylation inhibitors, RT inhibitors and melittin (Seq. ID NO:1). The most important feature of this experimental design, however, is to detect the toxicity of melittin. The present experiments were carried out on both the astrocytoma cell line LC5-HIV (cloned infected cells) and T-lymphocytoma cell line KE37-1/IIIβ (cloned infected cells with HTLV-IIIβ). In both cases the results were essentially identical.
(§2) In the present series of experiments HIV release was tested by a fully automated laboratory robot system and which is manufactured by Beckman Instruments as the Biomek 1000. This system performed the following steps. First, chronically infected cells (cloned) are plated in microtiter plates and grown for a period of seven days. They are then challenged by melittin (Seq. ID NO:1) during this period either for the final day or throughout the period as shown in the figures. The number of living cells are quantified by MTT, that is by a metabolic (dehydrogenase) test. The MTT test is automatically performed. The toxic effect is detected at the time of the experiment and not in a separate control experiment. Furthermore, the supernatant, and which contains released virus cells from the period of time which elapsed from the last wash, and which may vary from 24 hours to 7 days, is collected from the culture, and an aliquot is saved for virus quantification by employing antigen or viral enzyme reverse transcriptase (RT). Furthermore, an aliquot is added to a culture of uninfected cells in microtiter plates for subsequent measurement of the ability of the virus cells to reinfect these uninfected cells. In this regard, the number of infected cells is automatically quantified by an immunoperoxidase staining technique. The test results, as shown, are expressed in terms of toxicity of the melittin (MTT test); the release of HIV from the primary culture (RT test); and the ability of the released virus to infect previously uninfected cells.

[2] = test system: Rausher leukemia virus; details: 2 weeks
Description: The size of the spleen is taken as a measure of the progress of the disease which eventually leads to the death of the infected animals.
The test of the antiviral effect of the melittin (Seq. ID NO:1) principle was carried out on Balb C mice (12 weeks old; all males). The animals were kept in numbers of 4 per cage. The animals were infected by Rausher leukemia virus (10^5 infectious particles (viruses) per animal in a volume of 0.2 ml) by intraperitoneal injection (ip) followed by subcutaneous injection of the test substance after 10 minutes. The animals were divided into two groups referred to as controls (receiving a sham injection of saline) or test animals (receiving the melittin analogue).
The peptide was dissolved as 100 μg/ml and the controls as well as the test animals were injected with the same volume subcutaneously (0.1 ml) of PBS or PBS+test substance respectively. The injection was carried out 10 minutes after injection of the infectious virus. After 2 days the animals received a new injection of melittin analogue (10 μg/mg body weight) or PBS as a subcutaneous injection of 0.100 ml. After 4 days from the first injection a third injection was performed using 20 μg/mg body weight of melittin analogue.

[3] = test system: HIV; test: HIV release from chronically infected cells (Biomek 1000); assay type: cell-based; details: for inhibition of viral cell (HIV) release from infected cells, in words: FIGS. 6-19; for overall effect, in words: FIGS. 20-29
Text: as §1, §2

Substance | inhibition of growth / survival of infected cells, in words [1] | inhibition of viral cell (HIV) release from infected cells, in words [3] | overall effect, in words [3] | also measured
Gly-Ile-Gly-Ala-Val-Leu-Lys-Val-Leu-Thr-Thr-Gly-Leu-Pro-Ala-Leu-Ile-Ser-Trp-Ile-Gly-Gly-Gly-Gly-Gly-Gly [melittin (1-20)-6-(Gly)-Amide] | inhibited the growth of infected cells | inhibited HIV release |  | animals with spleens greater than 150 mg but lower than 170 mg (borderline) [2]: 25%; infected animals that do not develop disease [2]: 75%; number of animals with pathological spleen [2]: one; spleen weight of the rest of the test group [2]: 100 to 150 mg
MHC: MHC (Seq. ID NO:10), (MAJOR histocompatibility complex sequence) (VAAKANRVADEIRHKREKLE) [reference compound] |  |  | do not have any readily apparent effects | 
Melittin COOH: Melittin COOH was tested and appeared to be less efficient than the melittin amid |  |  |  | efficiency compared with melittin amid [3]: less efficient than the melittin amid
control peptide: HOLST peptide (negative control); no apparent structural similarity to melittin (FAESGVDTPVFNSY) [reference compound] |  |  | without effect | 
mastoparan [reference compound] |  |  | do not have any readily apparent effects | 
melittin 1-20: melittin 1-20 (Seq. ID NO:7) lacks the cell binding part of the molecule | inhibited the growth of infected cells | inhibited HIV release as did the natural melittin and melittin (1-20)-6-(Gly)-Amide |  | 

— patent US5770688A, “Method and composition for the treatment of mammalian HIV infection” (GSF-Forschungszentrum fur Umwelt und Gesundheit GmbH, priority 1989, dated 1998)
